Earlier results, collected in patent US20220323356A1, “METAL (HYDR)OXIDE COMPOSITE COMPRISING POORLY SOLUBLE DRUG, METHOD FOR PREPARING SAME, AND PHARMACEUTICAL COMPOSITION COMPRISING SAME” (priority 2020, published 2022).
Where a name gives a salt, the structure may show the parent alone. *1 amine or outer side, *2 acyl side, *3 side chain or, on linkers, in order; H or OH if unused. Where a SMILES comes first, the peptide text is derived from it. Bridges are numbered along the chain shown (N, C = ends). [ ]: non-standard residue; d: D form. The star is where a group is joined. pTerphenylCO(4''-OnC5H11) = CCCCCOc1ccc(-c2ccc(-c3ccc(C(=O)*)cc3)cc2)cc1; Orn(4R-OH,5R-OH) = O=C([C@H](C[C@@H](O)[C@@H](O)N[*:3])N[*:1])[*:2]; hTyr(3S-OH,4S-OH) = N[C@H](C(=O)O)[C@H](O)[C@@H](O)c1ccc(O)cc1; Pro(3S-OH,4S-Me) = C[C@H]1CN[C@H](C(=O)O)[C@H]1O; Hyp = O=C(O)[C@@H]1C[C@@H](O)CN1

Conditions: in vivo; cited from earlier work

C[C@]12CC[C@H](O)CC1=CC[C@@H]1[C@@H]2CC[C@]2(C)C(c3cccnc3)=CC[C@@H]12 [Abiraterone]
bioavailability (%): <10%

O=C1O[C@H]([C@@H](O)CO)C(O)=C1O [Ascorbic acid]
bioavailability (%): 69%

CNC(=O)c1ccccc1Sc1ccc2c(/C=C/c3ccccn3)n[nH]c2c1 [Axitinib]
bioavailability (%): 58%

COc1cc(Nc2c(C#N)cnc3cc(OCCCN4CCN(C)CC4)c(OC)cc23)c(Cl)cc1Cl [Bosutinib]
bioavailability (%): 34%

COc1cc2nccc(Oc3ccc(NC(=O)C4(C(=O)Nc5ccc(F)cc5)CC4)cc3)c2cc1OC [Cabozantinib]
bioavailability (%): 74-93%

O=c1[nH]cc(F)c(=O)[nH]1 [Fluorouracil]
bioavailability (%): 28%

CC(=O)[C@]1(O)Cc2c(O)c3c(c(O)c2[C@@H](O[C@H]2C[C@H](N)[C@H](O)[C@H](C)O2)C1)C(=O)c1ccccc1C3=O [Idarubicin]
bioavailability (%): 20-25%

CC(=O)O[C@H]1C(=O)[C@@]2(C)[C@H]([C@H](OC(=O)c3ccccc3)[C@]3(O)C[C@H](OC(=O)[C@H](O)[C@@H](NC(=O)c4ccccc4)c4ccccc4)C(C)=C1C3(C)C)[C@]1(OC(C)=O)CO[C@@H]1C[C@@H]2O [Paclitaxel]
bioavailability (%): 30%

CCN(CC)CCOc1ccc2c(c1)C(=O)c1cc(OCCN(CC)CC)ccc1-2 [Tilorone]
bioavailability (%): 60%

CC[C@@]1(O)C(=O)OCc2c1cc1n(c2=O)Cc2cc3c(CN(C)C)c(O)ccc3nc2-1 [Topotecan]
bioavailability (%): 30-44%

CCN1CCN(Cc2ccc(Nc3ncc(F)c(-c4cc(F)c5nc(C)n(C(C)C)c5c4)n3)nc2)CC1 [abemaciclib(USAN), abemaciclib]
bioavailability (%): 45%

CC(=O)N[C@@H](CS)C(=O)O [acetylcysteine]
bioavailability (%): 10%

Oc1ncnc2[nH]ncc12 [allopurinol]
bioavailability (%): 67%

CCN(CC)Cc1cc(Nc2ccnc3cc(Cl)ccc23)ccc1O [amodiaquine]
bioavailability (%): 22%

CCCCCOc1ccc(-c2ccc(-c3ccc(C(=O)N[C@H]4C[C@@H](O)[C@@H](O)NC(=O)[C@@H]5[C@@H](O)[C@@H](C)CN5C(=O)[C@H]([C@@H](C)O)NC(=O)[C@H]([C@H](O)[C@@H](O)c5ccc(O)cc5)NC(=O)[C@@H]5C[C@@H](O)CN5C(=O)[C@H]([C@@H](C)O)NC4=O)cc3)cc2)cc1 [anidulafungin(LY303366), anidulafungin] ({pTerphenylCO(4''-OnC5H11)}-[Orn(4R-OH,5R-OH)]T[Hyp][hTyr(3S-OH,4S-OH)]T[Pro(3S-OH,4S-Me)]; lactam 1-C)
bioavailability (%): 2~7%

COC(=O)N[C@H](C(=O)N[C@@H](Cc1ccccc1)[C@@H](O)CN(Cc1ccc(-c2ccccn2)cc1)NC(=O)[C@@H](NC(=O)OC)C(C)(C)C)C(C)(C)C [atazanavir]
bioavailability (%): 60%

Cc1c(-c2ccc(O)cc2)n(Cc2ccc(OCCN3CCCCCC3)cc2)c2ccc(O)cc12 [bazedoxifene]
bioavailability (%): 6%

COc1cc2c3cc1Oc1c(OC)c(OC)cc4c1[C@@H](Cc1ccc(O)c(c1)Oc1ccc(cc1)C[C@@H]3N(C)CC2)N(C)CC4 [berbamine]
bioavailability (%): 30%

N.N.O=C([O-])C1(C(=O)[O-])CCC1.[Pt+2] [carboplatin]
bioavailability (%): 1.16%

COc1ccc2cc1Oc1ccc(cc1)C[C@H]1c3c(cc4c(c3Oc3cc5c(cc3OC)CCN(C)[C@@H]5C2)OCO4)CCN1C [cepharanthine]
bioavailability (%): 5%

Cc1cc(Nc2ncc(Cl)c(Nc3ccccc3S(=O)(=O)C(C)C)n2)c(OC(C)C)cc1C1CCNCC1 [ceritinib(LDK378), ceritinib]
bioavailability (%): 50%

CCN(CC)CCCC(C)Nc1ccnc2cc(Cl)ccc12 (centres unmarked) [chloroquine]
bioavailability (%): 50~100%

CC(C)C(=O)OCC(=O)[C@@]12O[C@H](C3CCCCC3)O[C@@H]1C[C@H]1[C@@H]3CCC4=CC(=O)C=C[C@]4(C)[C@H]3[C@@H](O)C[C@@]12C [ciclesonide]
bioavailability (%): <1%

CCN(CC)CCOc1ccc(C(=C(Cl)c2ccccc2)c2ccccc2)cc1 [clomiphene]
bioavailability (%): 90%

CC(C)(C)c1nc(-c2cccc(NS(=O)(=O)c3c(F)cccc3F)c2F)c(-c2ccnc(N)n2)s1 [dabrafenib]
bioavailability (%): 95%

C[C@H]1O[C@@H](O[C@H]2[C@@H](O)C[C@H](O[C@H]3[C@@H](O)C[C@H](O[C@H]4CC[C@@]5(C)[C@H](CC[C@@H]6[C@@H]5CC[C@]5(C)[C@@H](C7=CC(=O)OC7)CC[C@]65O)C4)O[C@@H]3C)O[C@@H]2C)C[C@H](O)[C@@H]1O [digitoxin]
bioavailability (%): 98%

C[C@H]1O[C@@H](O[C@H]2[C@@H](O)C[C@H](O[C@H]3[C@@H](O)C[C@H](O[C@H]4CC[C@@]5(C)[C@H](CC[C@@H]6[C@@H]5C[C@@H](O)[C@]5(C)[C@@H](C7=CC(=O)OC7)CC[C@]65O)C4)O[C@@H]3C)O[C@@H]2C)C[C@H](O)[C@@H]1O [digoxin]
bioavailability (%): 50~90%

COc1cccc2c1C(=O)c1c(O)c3c(c(O)c1C2=O)C[C@@](O)(C(=O)CO)C[C@@H]3O[C@H]1C[C@H](N)[C@H](O)[C@H](C)O1 [doxorubicin]
bioavailability (%): 5%

CC/C(=C(/c1ccc(OCCN(C)C)cc1)c1cccc(O)c1)c1ccccc1 [droloxifene]
bioavailability (%): 2%

CCCCc1oc2ccc(NS(C)(=O)=O)cc2c1C(=O)c1ccc(OCCCN(CCCC)CCCC)cc1 [dronedarone]
bioavailability (%): 15%

CC1=NN(c2ccc(C)c(C)c2)C(=O)/C1=N\Nc1cccc(-c2cccc(C(=O)O)c2)c1O [eltrombopag]
bioavailability (%): 52%

C#Cc1cccc(Nc2ncnc3cc(OCCOC)c(OCCOC)cc23)c1 [erlotinib]
bioavailability (%): 59%

CO[C@H]1C[C@@H]2CC[C@@H](C)[C@@](O)(O2)C(=O)C(=O)N2CCCC[C@H]2C(=O)O[C@H]([C@H](C)C[C@@H]2CC[C@@H](OCCO)[C@H](OC)C2)CC(=O)[C@H](C)/C=C(\C)[C@@H](O)[C@@H](OC)C(=O)[C@H](C)C[C@H](C)/C=C/C=C/C=C/1C [everolimus]
bioavailability (%): 5%

NC(=O)c1nc(F)c[nH]c1=O [favipiravir]
bioavailability (%): 98%

CCc1nc(C(N)=O)c(Nc2ccc(N3CCC(N4CCN(C)CC4)CC3)c(OC)c2)nc1NC1CCOCC1 [gilteritinib]
bioavailability (%): 60%

Oc1c(Cl)cc(Cl)c(Cl)c1Cc1c(O)c(Cl)cc(Cl)c1Cl [hexachlorophene]
bioavailability (%): 4~10%

CCN(CCO)CCCC(C)Nc1ccnc2cc(Cl)ccc12 (centres unmarked) [hydroxychloroquine]
bioavailability (%): 70%

CC(=O)[C@@]1(O)CC[C@H]2[C@@H]3CCC4=CC(=O)CC[C@]4(C)[C@H]3CC[C@@]21C [hydroxyprogesterone]
bioavailability (%): 3%

COC1=C(OC)C(=O)C(CCCCCCCCCCO)=C(C)C1=O [idebenone]
bioavailability (%): <1%

CC(C)(C)c1cc(C(C)(C)C)c(NC(=O)c2c[nH]c3ccccc3c2=O)cc1O [ivacaftor]
bioavailability (%): 20~30%

CS(=O)(=O)CCNCc1ccc(-c2ccc3ncnc(Nc4ccc(OCc5cccc(F)c5)c(Cl)c4)c3c2)o1 [lapatinib]
bioavailability (%): 60%

N#Cc1cc(NC(=O)C(=O)O)c(Cl)c(NC(=O)C(=O)O)c1 [lodoxamide]
bioavailability (%): 71%

CN(C)C(=O)C(CCN1CCC(O)(c2ccc(Cl)cc2)CC1)(c1ccccc1)c1ccccc1 [loperamide]
bioavailability (%): 0.3%

Cc1cccc(C)c1OCC(=O)N[C@@H](Cc1ccccc1)[C@@H](O)C[C@H](Cc1ccccc1)NC(=O)[C@H](C(C)C)N1CCCNC1=O [lopinavir]
bioavailability (%): 25%

OC(c1cc(C(F)(F)F)nc2c(C(F)(F)F)cccc12)C1CCCCN1 (centres unmarked) [mefloquine]
bioavailability (%): 85%

COc1ccc2[nH]cc(CCNC(C)=O)c2c1 [melatonin]
bioavailability (%): 15%

O=C(Nc1ccc([N+](=O)[O-])cc1Cl)c1cc(Cl)ccc1O [niclosamide]
bioavailability (%): 10%

Cc1cn(-c2cc(NC(=O)c3ccc(C)c(Nc4nccc(-c5cccnc5)n4)c3)cc(C(F)(F)F)c2)cn1 [nilotinib]
bioavailability (%): 30%

C=CC(=O)Nc1cc(Nc2nccc(-c3cn(C)c4ccccc34)n2)c(OC)cc1N(C)CCN(C)C [osimertinib(AZD-9291), osimertinib]
bioavailability (%): 70%

Cc1ccc(Nc2nccc(N(C)c3ccc4c(C)n(C)nc4c3)n2)cc1S(N)(=O)=O [pazopanib]
bioavailability (%): 14-39%

CC(=O)CCCCn1c(=O)c2c(ncn2C)n(C)c1=O [pentoxifylline]
bioavailability (%): 20%

C1CCC(C(CC2CCCCN2)C2CCCCC2)CC1 (centres unmarked) [perhexiline maleate]
bioavailability (%): 80%

CCCN[C@H]1CCc2nc(N)sc2C1 [pramipexole]
bioavailability (%): 90%

CC(C)(Sc1cc(C(C)(C)C)c(O)c(C(C)(C)C)c1)Sc1cc(C(C)(C)C)c(O)c(C(C)(C)C)c1 [probucol]
bioavailability (%): 6%

C[C@@H]1O[C@@H](O[C@@H]2C=C3CC[C@@H]4[C@H](CC[C@]5(C)[C@@H](c6ccc(=O)oc6)CC[C@]45O)[C@@]3(C)CC2)[C@H](O)[C@H](O)[C@H]1O [proscillaridin]
bioavailability (%): 25%

O=c1c(O)c(-c2ccc(O)c(O)c2)oc2cc(O)cc(O)c12 [quercetin]
bioavailability (%): 20%

CC[C@@H](C(=O)[C@@H](C)[C@@H](O)[C@H](C)[C@@H]1O[C@@H]([C@@H](CC)C(=O)O)CC[C@@H]1C)[C@H]1O[C@]2(C=C[C@@H](O)[C@]3(CC[C@@](C)([C@H]4CC[C@](O)(CC)[C@H](C)O4)O3)O2)[C@H](C)C[C@@H]1C [salinomycin]
bioavailability (%): 73%

Cc1c(C(=O)Nc2ccc(N3C[C@@H](C)O[C@@H](C)C3)nc2)cccc1-c1ccc(OC(F)(F)F)cc1 [sonidegib]
bioavailability (%): 69%

Cn1nnc2c(C(N)=O)ncn2c1=O [temozolomide]
bioavailability (%): 100%

CSc1ccc2c(c1)N(CCC1CCCCN1C)c1ccccc1S2 (centres unmarked) [thioridazine]
bioavailability (%): 28%

CN(C)CCOc1ccc(/C(=C(/CCCl)c2ccccc2)c2ccccc2)cc1 [toremifene]
bioavailability (%): 100%

CC(=O)Nc1cccc(-n2c(=O)n(C3CC3)c(=O)c3c(Nc4ccc(I)cc4F)n(C)c(=O)c(C)c32)c1 [trametinib]
bioavailability (%): 72%
